The values below are quoted from earlier work in publication PMC3389233 (Bioorganic & medicinal chemistry, 2012).

Like-named read-outs stand apart in the source and are kept apart here.

This data set deals with HPPK.

By Kd is commonly meant the constant that tells how readily two partners part at equilibrium. `Nc1ncnc2c1ncn2[C@@H]1O[C@H](COP(=O)(O)OP(=O)(O)OP(=O)(O)O)[C@@H](O)[C@H]1O` [MgATP]: the Kd (MgATP binding to the enzyme first) is 2.6 to 4.5 µM. Consider `Nc1nc2c(c(=O)[nH]1)N=C(CO)CN2` [HP, 6-hydroxymethyl-7,8-dihydropterin], for which the Kd result (rapid addition of HP after MgATP binding) is “sub-µM range”.
